# According to ChEMBL document CHEMBL4665624, “Synthesis of 5-(4-(1H-phenanthro[9,10-d]imidazol-2-yl)benzylidene)thiazolidine-2,4-dione as promising DNA and serum albumin-binding agents and evaluation of antitumor activity” (Eur J Med Chem, 2019):
# System: SNB-75
# Assay: Antitumor activity against human SNB-75 cells assessed as cell growth inhibition at 10 uM incubated for 48 hrs by sulforhodamine B assay
# Assay type: functional
# Details: read-out: GI
row,Compound,inhibition of growth at 10 µM [%]
1,CCN(CC)c1ccc(-c2nc3c4ccccc4c4ccccc4c3[nH]2)c(O)c1,< 10

# System: ACHN
# Assay: Antitumor activity against human ACHN cells assessed as cell growth inhibition at 10 uM incubated for 48 hrs by sulforhodamine B assay
# Assay type: functional
# Details: read-out: GI
row,Compound,inhibition of growth at 10 µM [%]
1,CCN(CC)c1ccc(-c2nc3c4ccccc4c4ccccc4c3[nH]2)c(O)c1,< 10

# System: RXF 393
# Assay: Antitumor activity against human RXF 393 cells assessed as cell growth inhibition at 10 uM incubated for 48 hrs by sulforhodamine B assay
# Assay type: functional
# Details: read-out: GI
row,Compound,inhibition of growth at 10 µM [%]
1,CCN(CC)c1ccc(-c2nc3c4ccccc4c4ccccc4c3[nH]2)c(O)c1,< 10

# System: HL-60(TB)
# Assay: Antitumor activity against human HL-60(TB) cells assessed as cell growth inhibition at 10 uM incubated for 48 hrs by sulforhodamine B assay
# Assay type: functional
# Details: read-out: GI
row,Compound,inhibition of growth at 10 µM [%]
1,CCN(CC)c1ccc(-c2nc3c4ccccc4c4ccccc4c3[nH]2)c(O)c1,< 10

# System: UO-31
# Assay: Antitumor activity against human UO-31 cells assessed as cell growth inhibition at 10 uM incubated for 48 hrs by sulforhodamine B assay
# Assay type: functional
# Details: read-out: GI
row,Compound,inhibition of growth at 10 µM [%]
1,CCN(CC)c1ccc(-c2nc3c4ccccc4c4ccccc4c3[nH]2)c(O)c1,24.4

# System: PC-3
# Assay: Antitumor activity against human PC-3 cells assessed as cell growth inhibition at 10 uM incubated for 48 hrs by sulforhodamine B assay
# Assay type: functional
# Details: read-out: GI
row,Compound,inhibition of growth at 10 µM [%]
1,CCN(CC)c1ccc(-c2nc3c4ccccc4c4ccccc4c3[nH]2)c(O)c1,< 10

# System: SW-620
# Assay: Antitumor activity against human SW620 cells assessed as cell growth inhibition at 10 uM incubated for 48 hrs by sulforhodamine B assay
# Details: SW-620, 48 h, read-out: GI
row,Compound,inhibition of growth at 10 µM [%]
1,CCN(CC)c1ccc(-c2nc3c4ccccc4c4ccccc4c3[nH]2)c(O)c1,< 10

# System: A498
# Assay: Antitumor activity against human A498 cells assessed as cell growth inhibition at 10 uM incubated for 48 hrs by sulforhodamine B assay
# Assay type: functional
# Details: read-out: GI
row,Compound,inhibition of growth at 10 µM [%]
1,CCN(CC)c1ccc(-c2nc3c4ccccc4c4ccccc4c3[nH]2)c(O)c1,< 10

# System: NCI-H460
# Assay: Antitumor activity against human NCI-H460 assessed as cell growth inhibition at 10 uM incubated for 48 hrs by sulforhodamine B assay
# Assay type: functional
# Details: read-out: GI
row,Compound,inhibition of growth at 10 µM [%]
1,CCN(CC)c1ccc(-c2nc3c4ccccc4c4ccccc4c3[nH]2)c(O)c1,< 10

# System: NCI-H23
# Assay: Antitumor activity against human NCI-H23 cells assessed as cell growth inhibition at 10 uM incubated for 48 hrs by sulforhodamine B assay
# Assay type: functional
# Details: read-out: GI
row,Compound,inhibition of growth at 10 µM [%]
1,CCN(CC)c1ccc(-c2nc3c4ccccc4c4ccccc4c3[nH]2)c(O)c1,< 10

# System: K562
# Assay: Antitumor activity against human K562 cells assessed as cell growth inhibition at 10 uM incubated for 48 hrs by sulforhodamine B assay
# Assay type: functional
# Details: read-out: GI
row,Compound,inhibition of growth at 10 µM [%]
1,CCN(CC)c1ccc(-c2nc3c4ccccc4c4ccccc4c3[nH]2)c(O)c1,20.5

# System: SK-OV-3
# Assay: Antitumor activity against human SK-OV-3 cells assessed as cell growth inhibition at 10 uM incubated for 48 hrs by sulforhodamine B assay
# Assay type: functional
# Details: read-out: GI
row,Compound,inhibition of growth at 10 µM [%]
1,CCN(CC)c1ccc(-c2nc3c4ccccc4c4ccccc4c3[nH]2)c(O)c1,10.1

# System: MOLT-4
# Assay: Antitumor activity against human MOLT4 cells assessed as cell growth inhibition at 10 uM incubated for 48 hrs by sulforhodamine B assay
# Assay type: functional
# Details: read-out: GI
row,Compound,inhibition of growth at 10 µM [%]
1,CCN(CC)c1ccc(-c2nc3c4ccccc4c4ccccc4c3[nH]2)c(O)c1,< 10

# System: SF-268
# Assay: Antitumor activity against human SF268 cells assessed as cell growth inhibition at 10 uM incubated for 48 hrs by sulforhodamine B assay
# Assay type: functional
# Details: read-out: GI
row,Compound,inhibition of growth at 10 µM [%]
1,CCN(CC)c1ccc(-c2nc3c4ccccc4c4ccccc4c3[nH]2)c(O)c1,< 10

# System: SK-MEL-28
# Assay: Antitumor activity against human SK-MEL-28 cells assessed as cell growth inhibition at 10 uM incubated for 48 hrs by sulforhodamine B assay
# Assay type: functional
# Details: read-out: GI
row,Compound,inhibition of growth at 10 µM [%]
1,CCN(CC)c1ccc(-c2nc3c4ccccc4c4ccccc4c3[nH]2)c(O)c1,< 10

# System: SF-295
# Assay: Antitumor activity against human SF295 cells assessed as cell growth inhibition at 10 uM incubated for 48 hrs by sulforhodamine B assay
# Assay type: functional
# Details: read-out: GI
row,Compound,inhibition of growth at 10 µM [%]
1,CCN(CC)c1ccc(-c2nc3c4ccccc4c4ccccc4c3[nH]2)c(O)c1,< 10

# System: NCI-H522
# Assay: Antitumor activity against human NCI-H522 cells assessed as cell growth inhibition at 10 uM incubated for 48 hrs by sulforhodamine B assay
# Assay type: functional
# Details: read-out: GI
row,Compound,inhibition of growth at 10 µM [%]
1,CCN(CC)c1ccc(-c2nc3c4ccccc4c4ccccc4c3[nH]2)c(O)c1,10.4

# System: HCC 2998
# Assay: Antitumor activity against human HCC2998 cells assessed as cell growth inhibition at 10 uM incubated for 48 hrs by sulforhodamine B assay
# Assay type: functional
# Details: read-out: GI
row,Compound,inhibition of growth at 10 µM [%]
1,CCN(CC)c1ccc(-c2nc3c4ccccc4c4ccccc4c3[nH]2)c(O)c1,< 10

# System: SR
# Assay: Antitumor activity against human SR cells assessed as cell growth inhibition at 10 uM incubated for 48 hrs by sulforhodamine B assay
# Assay type: functional
# Details: read-out: GI
row,Compound,inhibition of growth at 10 µM [%]
1,CCN(CC)c1ccc(-c2nc3c4ccccc4c4ccccc4c3[nH]2)c(O)c1,15.8

# System: KM12
# Assay: Antitumor activity against human KM12 cells assessed as cell growth inhibition at 10 uM incubated for 48 hrs by sulforhodamine B assay
# Assay type: functional
# Details: read-out: GI
row,Compound,inhibition of growth at 10 µM [%]
1,CCN(CC)c1ccc(-c2nc3c4ccccc4c4ccccc4c3[nH]2)c(O)c1,< 10

# System: LOX IMVI
# Assay: Antitumor activity against human LOX IMVI cells assessed as cell growth inhibition at 10 uM incubated for 48 hrs by sulforhodamine B assay
# Assay type: functional
# Details: read-out: GI
row,Compound,inhibition of growth at 10 µM [%]
1,CCN(CC)c1ccc(-c2nc3c4ccccc4c4ccccc4c3[nH]2)c(O)c1,11.7

# System: RPMI-8226
# Assay: Antitumor activity against human RPMI8226 cells assessed as cell growth inhibition at 10 uM incubated for 48 hrs by sulforhodamine B assay
# Assay type: functional
# Details: read-out: GI
row,Compound,inhibition of growth at 10 µM [%]
1,CCN(CC)c1ccc(-c2nc3c4ccccc4c4ccccc4c3[nH]2)c(O)c1,< 10

# System: MDA-MB-435
# Assay: Antitumor activity against human MDA-MB-435 cells assessed as cell growth inhibition at 10 uM incubated for 48 hrs by sulforhodamine B assay
# Assay type: functional
# Details: read-out: GI
row,Compound,inhibition of growth at 10 µM [%]
1,CCN(CC)c1ccc(-c2nc3c4ccccc4c4ccccc4c3[nH]2)c(O)c1,< 10

# System: MCF7
# Assay: Antitumor activity against human MCF7 cells assessed as cell growth inhibition at 10 uM incubated for 48 hrs by sulforhodamine B assay
# Assay type: functional
# Details: read-out: GI
row,Compound,inhibition of growth at 10 µM [%]
1,CCN(CC)c1ccc(-c2nc3c4ccccc4c4ccccc4c3[nH]2)c(O)c1,23.8
